Experimental data taken from PubChem BioAssay (NCI).
“And” between values parts separate entries of the source, which are not always exact repeats. Equal values may be shown once.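 Protocol summary: plate cells (96-well), add compound at 5 concentrations, incubate 48 h, interpolate endpoints linearly. The concentration for 50% growth inhibition is given as GI50. The concentration for full growth arrest is given as TGI.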

Columns and labels:
Assay in all cases: inhibition of tumour cell growth, NCI panel, 48 h
NCI-H23 lung = system: NCI-H23 lung
K-562 leukemia = system: K-562 leukemia
HOP-92 NSCLC = system: HOP-92 NSCLC
SF-295 CNS = system: SF-295 CNS
UACC-257 melanoma = system: UACC-257 melanoma
LXFL 529 NSCLC = system: LXFL 529 NSCLC
TK-10 renal = system: TK-10 renal
786-0 renal = system: 786-0 renal
KM12 colon = system: KM12 colon
PC-3 prostate = system: PC-3 prostate

| Structure (SMILES) | TGI (NCI-H23 lung) | TGI (K-562 leukemia) | TGI (HOP-92 NSCLC) | TGI (SF-295 CNS) | TGI (UACC-257 melanoma) | GI50 (LXFL 529 NSCLC) | TGI (LXFL 529 NSCLC) | TGI (TK-10 renal) | TGI (786-0 renal) | TGI (KM12 colon) | TGI (PC-3 prostate) |
| --- | --- | --- | --- | --- | --- | --- | --- | --- | --- | --- | --- |
| CCCC(=O)[O-].N.N.N.N.N.[Co+3].[O-][Cl+3]([O-])([O-])[O-] | > 100 µM | > 100 µM | > 100 µM | > 100 µM | > 100 µM | > 100 µM | > 100 µM | > 100 µM | > 100 µM | > 100 µM | – |
| COC(=O)C1=C(C(=O)OC)SC2(S1)C(C(=O)OC)=C(C(=O)OC)Sc1c2ssc1=NC(C)(C)C | 6.66 µM | 9.66 µM | 2.76 µM | 27.7 µM | 3.05 µM | – | – | 3.27 µM | 2.62 µM | 3.91 µM | 2.75 µM |
| C=C(c1ccccc1)c1ccccc1-c1cc(-c2ccccc2)cc(-c2ccccc2)n1 | > 100 µM | > 100 µM | > 100 µM | > 100 µM | > 100 µM | – | – | > 100 µM | > 100 µM | > 100 µM | > 100 µM |
| CCN1CCC(O)(/C=C/c2ccc(OC)cc2)C(C(=O)/C=C/c2ccc(OC)cc2)C1 (centres undefined) | 27.9 µM | 12.2 µM | 21.3 µM | 29.2 µM | 30.9 µM | – | – | 26.7 µM | 12.4 µM | 19.9 µM | 23.5 µM |
| C[N+](C)(CCNC(=O)c1cccc2cc3ccccc3nc12)Cc1ccc([N+](=O)[O-])s1 | > 25 µM | > 25 µM | > 25 µM | > 25 µM | > 25 µM | – | – | > 25 µM | > 25 µM | > 25 µM | > 25 µM |
| COc1cc(CS(=O)c2ccc(O)cc2)cc(OC)c1OC (centres undefined) | > 100 µM | > 100 µM | > 100 µM | > 100 µM | > 100 µM | – | – | > 100 µM | > 100 µM | > 100 µM | > 100 µM |
| CCOC(=O)c1c(-c2cccc3ccccc23)c(C#N)c(=S)n(C2OC(COC(C)=O)C(OC(C)=O)C(OC(C)=O)C2OC(C)=O)c1C (centres undefined) | > 100 µM | > 100 µM | > 100 µM | > 100 µM | > 100 µM | – | – | > 100 µM | > 100 µM | > 100 µM | > 100 µM |
| CC(C)(C)[Si](C)(C)OCC1OC(n2cnc3c(=O)[nH]c(N)nc32)C(O[Si](C)(C)C(C)(C)C)C1O[Si](C)(C)C(C)(C)C (centres undefined) | 2.9 µM | 2.76 µM | 7.37 µM | 12 µM | 9.4 µM | – | – | 5.97 µM | 4.88 µM | 3.19 µM | 9.79 µM |
| CCOC(=O)[C@@H]1ON2OC(OC3CCCC3(c3ccccc3)c3ccccc3)C(OC(C)=O)[C@H]3OC(=O)[C@@H]1C32 (some centres undefined) | > 100 µM | > 100 µM | > 100 µM | > 100 µM | > 100 µM | – | – | > 100 µM | > 100 µM | > 100 µM | > 100 µM |
| COC(=O)C(NC(=O)c1ccccc1)C(c1ccc(Cl)cc1)P(=O)(OC)OC (centres undefined) | > 100 µM | > 100 µM | > 100 µM | > 100 µM | > 100 µM | – | > 100 µM | > 100 µM | – | > 100 µM | – |
| C/C=C(/C)C(=O)O[C@H]1[C@H](O)CC(c2ccc3c(c2O)C(O)=C2C(=O)C4(OC)C(O)=C(C(N)=O)C(=O)[C@H](CC(=O)c5ccccc5O)C4CC2[C@@]3(C)OC)O[C@@H]1C (some centres undefined) | 0.228 µM and 0.067 µM | 10.7 µM | 0.625 µM | 0.193 µM and 0.128 µM | – | – | 0.973 µM | 6.19 µM and 4.65 µM | 1.43 µM and 1.35 µM | 0.226 µM and 0.0935 µM | 0.187 µM |
| C=C1C(=O)OC2CC3(C)OC3CC/C(C)=C/C(OC(C)=O)C12 (centres undefined) | 27.6 µM | 15.4 µM | 4.69 µM | 27.4 µM | 22.6 µM | – | 5.92 µM | 12.8 µM | 14.2 µM | 39.9 µM | 26 µM |
| O=[N+]([O-])C(Cl)=C/C(=C(\Cl)SCc1ccccc1)[N+](=O)[O-] | 69.6 µM | 30.5 µM | 36.1 µM | 99.6 µM | 79.7 µM | – | – | 48.3 µM | 71.2 µM | > 100 µM | 48.1 µM |
| COC1OC2=CCC3C(=O)NC(=O)C3C2[C@H](OCc2ccccc2)C1OCc1ccccc1 (some centres undefined) | 4.7 µM | – | 4.15 µM | 32.7 µM | 3.68 µM | – | 3.09 µM | 3.12 µM | – | 19.4 µM | – |
| CN1CCN(C2=CC(=O)c3c(O)ccc(O)c3C2=O)CC1 | 2.8 µM | 1.72 µM | 3.29 µM | 3.09 µM | 0.467 µM | – | – | 4.22 µM | 3.91 µM | 3.59 µM | > 10 µM |
